Laboratory results published in US4096173A, “Chlorinated 1-aminoindane N-methyl transferase inhibitors” (Eli Lilly and Company, priority 1977, dated 1978).
Structures can show the parent of a compound that is named as a salt. Where two headings read alike, the source gives them in different places.

Tests used:
catechol amine uptake = details: comparison stated in the literature; cited from earlier work
[1] = biological target: T1, NMT from rabbit adrenals (norephineprine N-methyl transferase, PNMT) (Oryctolagus cuniculus, UniProt G1TT82); assay: In vitro inhibition of N-methyl transferase (NMT) from rabbit adrenals; assay type: biochemical
T1 construct: NMT from rabbit adrenals; from tissue; host or cells: rabbit adrenals
T1 sequence (G1TT82 1-286): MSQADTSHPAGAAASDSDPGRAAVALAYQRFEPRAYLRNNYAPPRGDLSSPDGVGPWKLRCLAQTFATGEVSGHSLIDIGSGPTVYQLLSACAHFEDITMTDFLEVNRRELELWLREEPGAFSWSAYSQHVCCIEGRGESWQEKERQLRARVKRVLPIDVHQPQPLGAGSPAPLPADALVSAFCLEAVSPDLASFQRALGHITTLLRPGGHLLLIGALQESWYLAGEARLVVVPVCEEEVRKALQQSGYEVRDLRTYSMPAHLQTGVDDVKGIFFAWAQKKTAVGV
From the text: The compounds of this invention, either in the form of the free base, or as a pharmaceutically-acceptable acid addition salt thereof, are enzyme inhibitors. In particular, as previously stated, they are inhibitors of norephineprine N-methyl transferase [PNMT or phenethanolamine N-methyl transferase--see Axelod, J. Bio, Chem., 237, 1657 (1962)]. Compounds which inhibit the conversion of norephineprine to […], are capable of lowering a high […]-norephineprine ratio in mammals, a physiological condition frequently associated with essential hypertension. The compounds of this invention are thus capable of ameliorating the […]-norephineprine imbalance in essential hypertension, an important aspect of the treatment of this disease state. The effectiveness of the compounds as N-methyl transferase inhibitors has been measured in vitro using NMT from rabbit adrenals. […] The negative reciprocal logarhithm (pI50) of this number was also calculated as a useful index. Table 1, which follows, summarizes the information thus obtained; i.e., the determination of enzyme inhibition activity for the compounds of this invention.

[2] = read-out: pI50 (negative reciprocal logarhithm of the 50 percent inhibitory concentration) (converted)
[3] = series of decreasing inhibitor concentrations from 1 × 10^-4 M, read-out: 50 Inhibitory Concentration (concentration at which 50 percent inhibition of NMT is obtained)

Row | SMILES | inhibition of catechol amine uptake, compared with 1-aminoindane (catechol amine uptake) | IC50 [1, 2] | IC50 [1, 3]
1 | NC1Cc2ccccc2C1 [2-aminoindane] | better inhibitor of catechol amine uptake than 1-aminoindane | – | –
2 | NC1CCc2c1ccc(Cl)c2Cl (stereo not drawn) [4,5-dichloro-1-aminoindane] | – | 200 nM | 200 nM
3 | NC1CCc2c(Cl)cccc21 (stereo not drawn) [4-Chloro-1-aminoindane hydrochloride, 4-chloro-1-aminoindane hydrochloride] | – | 759 nM | 757 nM
4 | NC1CCc2cc(Cl)c(Cl)cc21 (stereo not drawn) [5,6-dichloro-1-aminoindane maleate] | – | 4680 nM | 2950 nM
5 | NC1CCc2ccc(Cl)c(Cl)c21 (stereo not drawn) [6,7-dichloro-1-aminoindane] | – | 6030 nM | 5370 nM
